Source: PMC9715707, “Identification of a novel peptide ligand for the cancer-specific receptor mutation EGFRvIII using high-throughput sequencing of phage-selected peptides” (Scientific Reports, 2022)
Entries after “also recorded” stand apart in the source; their conditions may differ. Where no end group is shown, it is not given here. The star is where a group is joined. FITC = O=C1OC2(c3ccc(O)cc3Oc3cc(O)ccc32)c2ccc(NC(=S)*)cc21; Ahx = NCCCCCC(=O)O

Legend:
[1] = molecular target: T1, EGFRvIII (Homo sapiens, UniProt P00533, DELINS30-297G); assay: Microscale thermophoresis, EGFRvIII in solution; type: binding; conditions: read-out: Kd for EGFRvIII (MST, estimated)
T1 construct: using purified and active extracellular domain of the EGFRvIII protein; purchased Sino Biological 29662-H08B

[2] = test system: CLTH/EGFR WT cells; assay: Flow cytometry cellular binding of FITC-Ahx-peptides, EGFR WT cells; type: cell-based, human; conditions: 10 µM FITC-Ahx-peptide, 20 min at RT, 0.2% DMSO, MFI minus blank cells divided by spectrofluorometer correction factor
Description: (§1) Flow cytometry analysis was also performed to quantitatively analyze the binding affinity of the synthetized peptides to the different cell types. Briefly, 293T, CLTH/EGFR WT and CLTH/EGFRvIII cells (100,000 cells, 500 µL) were plated in 24-well plates and incubated overnight at 37 °C in a humidified atmosphere containing 5% CO2 overnight. The next day, cells were treated with FITC-Ahx-peptides using a stock solution in pure DMSO at 5 mM to reach a final concentration of 1, 5 or 10 µM (final percentage of DMSO of 0.2%). Plates were incubated for 20 min at RT. Cells were detached from the plates by a PBS wash, transferred to FACS tubes and washed two times with 4 mL of PBS. Cells were stained with LIVE/DEAD™ Fixable Near-IR Dead Cell Stain Kit (Thermofisher) as a viability marker. Cells were analyzed by flow cytometry on a MACSQuant Analyser 16 (Miltenyi Biotec) using the MACS Quantify software to acquire and process the data. LIVE/DEAD™ Fixable dye was excited at 640 nm and fluorescence was collected with the 785/62 nm filter. FITC was excited at 488 nm and fluorescence was collected with the 525/50 nm filter. Viable cells were gated, FITC fluorescence intensity was recorded and the mean fluorescence intensity (MFI) was measured. MFI values were then normalized by subtracting MFI from blank cells and dividing by the correction factor determined using a spectrofluorometer.
Since FITC fluorescence can be impacted by the nature of the amino acids in the peptide sequence and since the conjugation rate of FITC in the peptide synthesis can fluctuate, it was needed to measure a correction factor according to the fluorescence intensity of each peptide. As flow cytometry cannot analyze fluorescence of small molecules, a spectrofluorometer was used in similar conditions (excitation and emission) to the flow cytometry conditions. […] Fluorescence intensities at 525 nm of the FITC-Ahx-peptides in PBS were measured using a Varioskan plate reader (Thermo Scientific) and the SkanIt Software 5.0. […] Linear regressions were determined for each peptide. […]

[3] = test system: 293T cells; assay: Flow cytometry cellular binding of FITC-Ahx-peptides, 293T cells; type: cell-based, human; conditions: 20 min at RT; for Normalized MFI at 10 µM, 293T: 293T cells (negative control), 10 µM FITC-Ahx-peptide, 0.2% DMSO, MFI minus blank cells divided by spectrofluorometer correction factor
Description: as §1
Since FITC fluorescence can be impacted by the nature of the amino acids in the peptide sequence and since the conjugation rate of FITC in the peptide synthesis can fluctuate, it was needed to measure a correction factor according to the fluorescence intensity of each peptide. As flow cytometry cannot analyze fluorescence of small molecules, a spectrofluorometer was used in similar conditions (excitation and emission) to the flow cytometry conditions. Experiments were performed by the flow cytometry core facility at Institut Mondor de Recherche Biomédical (IMRB U955, France). Fluorescence intensities at 525 nm of the FITC-Ahx-peptides in PBS were measured using a Varioskan plate reader (Thermo Scientific) and the SkanIt Software 5.0. Samples with concentrations between at 0.625, 1.25, 2.5, 5, 10 and 20 µM were prepared in triplicates using stock solutions of peptides in DMSO at 5 mM. Samples (100 µL) were analyzed in a 96-well plate using the following conditions: temperature of 25 °C, excitation wavelength at 490 nm, excitation bandwidth of 5 nm, emission wavelength at 525 nm, by step of 1 nm, measurement time 100 ms, and upper lens. Linear regressions were determined for each peptide. The correction factor was determined by dividing each slope by the arbitrary value 100 and was used to normalize the MFI obtained by flow cytometry.

[4] = test system: CLTH/EGFRvIII cells; assay: Flow cytometry binding of phage-displayed peptides, EGFRvIII cells; type: cell-based, human; conditions: phage-displayed peptide (M13), ~10^10 phages pre-absorbed on 293T cells, 1 h at 4 °C; anti-M13_biotin + anti-biotin_PE vs secondary-only
Description: (§2) Prior to being tested with the selected phages or peptides, each cell line was incubated with different commercial antibodies to confirm their phenotype (Fig. S3). A monoclonal anti-EGFR WT antibody (Life Technologies) and an anti-EGFRvIII primary antibody (Millipore) were used in flow cytometry experiments to evaluate the expression of EGFR WT and EGFRvIII receptors on CLTH/EGFR WT cells and CLTH/EGFRvIII cells respectively. Anti-IgG1 conjugated to phycoerythrin (PE) (Miltenyi Biotec) was used as a secondary antibody to read the fluorescence of PE. 293T cells were tested as a negative control. A phage-free control experiment was also performed on each cell type prior to testing phages. Anti-M13 conjugated to biotin (Abcam) was used as a primary antibody, anti-mouse IgG3 kappa monoclonal conjugated to biotin (Abcam) as isotype control and anti-biotin conjugated to PE (Miltenyi Biotec) as secondary antibody. A list of the antibodies is available in Table S3.
Binding of the selected phages on 293T human embryo kidney, CLTH/EGFR WT and CLTH/EGFRvIII cells was characterized by flow cytometry. Approximately 1 × 10^6 293T cells (expressing endogenous levels of EGFR WT) were collected, washed with cold PBS and blocked with 2%w/v milk-PBS (MPBS), rotating for 30 min at 4 °C. […] The blocked phages were then added to the blocked cells and incubated rotating for 1 h at 4 °C. After centrifugation at 500g for 3 min, the supernatant containing non-bound phages was collected. This step allowed the removal of phages that interacted with this EGFR negative cell line (i.e. not an EGFR-specific binding). The supernatant was then used to resuspend transfected cells washed beforehand (CLTH/EGFR WT expressing EGFR WT and CLTH/EGFRvIII expressing EGFRvIII). Treated cells were incubated for 1 h at 4 °C, collected by centrifugation and washed two times with PBS at pH 7.4. Cells were stained with Viobility™ 405/520 fixable dye (Miltenyi Biotec) as a viability marker. Cells were analyzed by flow cytometry on a MACSQuant Analyser 16 (Miltenyi Biotec) using the MACS Quantify software to acquire and process the data. Viobility™ 405/520 fixable dye was excited at 405 nm and fluorescence was collected with the 525/50 nm filter. PE was excited at 488 nm and fluorescence was collected with the 579/34 nm filter. Viable cells were gated, and PE fluorescence intensity was recorded.

[5] = test system: CLTH/EGFRvIII cells; assay: Flow cytometry cellular binding of FITC-Ahx-peptides, EGFRvIII cells; type: cell-based, human; conditions: for Normalized MFI at 10 µM, vIII: EGFRvIII cells, 10 µM FITC-Ahx-peptide, 0.2% DMSO, MFI minus blank cells divided by spectrofluorometer correction factor; for Normalized MFI ratio vIII/WT from 3 different concentrations, Mean: EGFRvIII over EGFR WT cell line, mean of ratios at 1, 5 and 10 µM
Description: Since FITC fluorescence can be impacted by the nature of the amino acids in the peptide sequence and since the conjugation rate of FITC in the peptide synthesis can fluctuate, it was needed to measure a correction factor according to the fluorescence intensity of each peptide. As flow cytometry cannot analyze fluorescence of small molecules, a spectrofluorometer was used in similar conditions (excitation and emission) to the flow cytometry conditions. […] Fluorescence intensities at 525 nm of the FITC-Ahx-peptides in PBS were measured using a Varioskan plate reader (Thermo Scientific) and the SkanIt Software 5.0. Samples with concentrations between at 0.625, 1.25, 2.5, 5, 10 and 20 µM were prepared in triplicates using stock solutions of peptides in DMSO at 5 mM. Samples (100 µL) were analyzed in a 96-well plate using the following conditions: temperature of 25 °C, excitation wavelength at 490 nm, excitation bandwidth of 5 nm, emission wavelength at 525 nm, by step of 1 nm, measurement time 100 ms, and upper lens. Linear regressions were determined for each peptide. The correction factor was determined by dividing each slope by the arbitrary value 100 and was used to normalize the MFI obtained by flow cytometry.

[6] = test system: 293T cells; assay: Flow cytometry binding of phage-displayed peptides, 293T cells; type: cell-based, human; conditions: phage-displayed peptide (M13), 1 h at 4 °C
Description: as §2, with “Anti-M13 conjugated to biotin (Abcam) was used as a primary antibody, anti-mouse IgG3 kappa monoclonal conjugated to biotin (Abcam) as isotype control and anti-biotin conjugated to PE (Miltenyi Biotec) as secondary antibody. A list of the antibodies is available in Table S3.” left out
(§3) Binding of the selected phages on 293T human embryo kidney, CLTH/EGFR WT and CLTH/EGFRvIII cells was characterized by flow cytometry. […] Cells were analyzed by flow cytometry on a MACSQuant Analyser 16 (Miltenyi Biotec) using the MACS Quantify software to acquire and process the data. Viobility™ 405/520 fixable dye was excited at 405 nm and fluorescence was collected with the 525/50 nm filter. PE was excited at 488 nm and fluorescence was collected with the 579/34 nm filter. Viable cells were gated, and PE fluorescence intensity was recorded.

[7] = test system: CLTH/EGFR WT cells; assay: Flow cytometry binding of phage-displayed peptides, EGFR WT cells; type: cell-based, human; conditions: phage-displayed peptide (M13), 1 h at 4 °C
Description: as §2, with “Anti-M13 conjugated to biotin (Abcam) was used as a primary antibody, anti-mouse IgG3 kappa monoclonal conjugated to biotin (Abcam) as isotype control and anti-biotin conjugated to PE (Miltenyi Biotec) as secondary antibody. A list of the antibodies is available in Table S3.” left out
as §3

[8] = test system: EGFR WT; conditions: prior art; cited from earlier work
Text: Two short peptides intended for EGFR targeting of tumor cells have been described in the prior art.

[9] = molecular target: epidermal growth factor tyrosine kinase receptor mutation variant III (EGFRvIII) on CLTH/EGFRvIII cells (human) (UniProt P00533); assay: flow cytometry on cells; FITC-Ahx-peptides at 1, 5 or 10 µM (0.2% DMSO) on plated 293T, CLTH/EGFR WT and CLTH/EGFRvIII cells, 20 min at RT; FITC MFI of viable cells, normalised by blank cells and a spectrofluorometer correction factor

FALGEA-NH2 [FALGEA]
Kd [1]: 3.7 µM

FITC-Ahx-VLGREEWSTSYW-CONH2
Normalized MFI at 10 µM, WT [2]: 4.0
Normalized MFI at 10 µM, 293T [3]: 5.1

NESGITRIALQD [top peptide selected from the NGS data analysis]
specific binding of phage-displayed peptide to EGFRvIII cells (PE fluorescence) [4]: did not show a specific binding

NPIVRSAEDGQL [top peptide selected from the NGS data analysis]
specific binding of phage-displayed peptide to EGFRvIII cells (PE fluorescence) [4]: did not show a specific binding

VLGREEWSTSYW [novel 12-mer peptide ligand of EGFRvIII selected by phage display]
specific binding of phage-displayed peptide to EGFRvIII cells (PE fluorescence) [4]: appeared to show specific binding to the EGFRvIII cells compared to the EGFR WT and the parental cell
non-specific interactions (293T cell binding), qualitative ([3]; FITC-Ahx-peptide, flow cytometry): minimized for VLGREEWSTSYW compared to the YHWYGYTPENVI control; also recorded: less nonspecific interaction (293T cells); also recorded: significantly less nonspecific cellular binding
cellular binding to EGFRvIII cells, qualitative ([5]; FITC-Ahx-peptide, 20 min at RT, flow cytometry): A shift of fluorescence was observed for the VLGREEWSTSYW peptide on EGFRvIII compared to 293T and EGFR WT cell lines; also recorded: much higher for VLGREEWSTSYW compared to the FALGEA control; also recorded: binds to EGFRvIII cells with high efficiency; also recorded: greater affinity in cell surface binding experiments; also recorded: weaker signal with the free C-terminal FITC labeled peptide compared to the phage displayed format of the same peptide
specificity for EGFRvIII cells versus EGFR WT cells, qualitative ([5]; FITC-Ahx-peptide, flow cytometry, MFI ratio vIII/WT at 1, 5, 10 µM): shows the specificity to EGFRvIII versus EGFR WT for VLGREEWSTSYW compared to the control peptide YHWYGYTPENVI; also recorded: good specificity compared to EGFR WT cells; also recorded: better selectivity to EGFRvIII cells than to EGFR WT cells compared to FALGEA

VLGREEWSTSYW-M13
specific binding of phage-displayed peptide to EGFRvIII cells (PE fluorescence) [4]: showed a specific binding to EGFRvIII
difference in fluorescence intensity, anti-M13 vs secondary-only antibody, 293T cells [6]: no significant difference in these fluorescence intensities
difference in fluorescence intensity, anti-M13 vs secondary-only antibody, EGFR WT cells [7]: no significant difference in these fluorescence intensities

YHWYGYTPENVI
reported binding to EGFR WT, qualitative (YHWYGYTPENVI) [8]: proven to bind to EGFR WT

{FITC-Ahx}-FALGEA-NH2 (SMILES CC(C)C[C@H](NC(=O)[C@H](C)NC(=O)[C@H](Cc1ccccc1)NC(=O)CCCCCNC(=S)Nc1ccc2c(c1)C(=O)OC21c2ccc(O)cc2Oc2cc(O)ccc21)C(=O)NCC(=O)N[C@@H](CCC(=O)O)C(=O)N[C@@H](C)C(N)=O) [FALGEA control peptide with FITC-Ahx tag at the N-terminus, reference compound]
Normalized MFI at 10 µM, WT [2]: 0.7
Normalized MFI at 10 µM, 293T [3]: 0.9
Normalized MFI at 10 µM, vIII ([5]; 20 min at RT): 1.8
Normalized MFI ratio vIII/WT from 3 different concentrations, Mean [5]: 2.50

{FITC-Ahx}-YHWYGYTPENVI-NH2 (SMILES CC[C@H](C)[C@H](NC(=O)[C@@H](NC(=O)[C@H](CC(N)=O)NC(=O)[C@H](CCC(=O)O)NC(=O)[C@@H]1CCCN1C(=O)[C@@H](NC(=O)[C@H](Cc1ccc(O)cc1)NC(=O)CNC(=O)[C@H](Cc1ccc(O)cc1)NC(=O)[C@H](Cc1c[nH]c2ccccc12)NC(=O)[C@H](Cc1c[nH]cn1)NC(=O)[C@H](Cc1ccc(O)cc1)NC(=O)CCCCCNC(=S)Nc1ccc2c(c1)C(=O)OC21c2ccc(O)cc2Oc2cc(O)ccc21)[C@@H](C)O)C(C)C)C(N)=O) [reference compound]
Normalized MFI at 10 µM, WT [2]: 4.5
Normalized MFI at 10 µM, 293T [3]: 7.6
Normalized MFI at 10 µM, vIII ([5]; 20 min at RT): 9.7
Normalized MFI ratio vIII/WT from 3 different concentrations, Mean [5]: 1.80

B1: FITC-Ahx-FALGEA-CONH2 (peptide)
peptide: {FITC-Ahx}-FALGEA-NH2
SMILES: CC(C)C[C@H](NC(=O)[C@H](C)NC(=O)[C@H](Cc1ccccc1)NC(=O)CCCCCNC(=S)Nc1ccc2c(c1)C(=O)OC21c2ccc(O)cc2Oc2cc(O)ccc21)C(=O)NCC(=O)N[C@@H](CCC(=O)O)C(=O)N[C@@H](C)C(N)=O
normalized MFI at 10 µM [9]: 1.8
normalized MFI ratio vIII/WT from 3 different concentrations (mean) [9]: 2.5
